Read-outs that look alike come from different tables or passages of the source. Ends that are not written are not given here.
Legend:
B. subtilis BNCC109047 = assay type: cell-based; conditions: BNCC109047, 18 h
Protocol: (§1) The antimicrobial activity of the synthesized AMPs was evaluated against several strains, including E. coli BL21(DE3), S. aureus BNCC186335, B. subtilis BNCC109047, and drug‐resistant strains such as E coli XJ13000957, E. coli XJ13022488, E. coli XJ19025100, E. coli XJ22006301, and MRSA ATCC43300. All strains are stored at ‐80°C and, before testing, were transferred into fresh Mueller‐Hinton Medium and incubated for 24 h at 37°C. Fresh cultures were used for the antimicrobial assays. The MIC values were determined using the broth microdilution method according to the Clinical and Laboratory Standards Institute (CLSI) protocol. Initial bacterial inoculums (5× 10^5 colony forming units (CFU)/mL) in Mueller‐Hinton Broth were exposed to varying concentrations of the compounds (0.5‐512 µg/mL) and incubated for 18 h at 37°C. The experiments are conducted on 96‐well microtiter plates with a final volume of 100 µL. The MIC was defined as the lowest concentration of the compound that inhibits visible bacterial growth. Additionally, the MBC was evaluated. After determining the MIC, samples from the MIC well and two higher concentrations are plated on agar plates. The MBC was recorded as the lowest concentration at which no visible bacterial colonies were observed. All experiments were performed in triplicate, with positive controls (ensuring proper bacterial growth) and negative controls (ensuring sterility) included.

E. coli BL21(DE3) = assay type: cell-based; conditions: BL21, 18 h
Protocol: as §1

S. aureus BNCC186335 = assay type: cell-based; conditions: BNCC186335, 18 h
Protocol: as §1

MC3T3-E1 cells = assay type: cell-based, mouse
Description: (§2) The assessment of cytotoxicity primarily relies on alterations in cell membrane permeability. To evaluate the cytotoxicity of AMPs, we employed the Cell Counting Kit‐8 (CCK‐8) assay, which is widely recognized as one of the most frequently used methods for assessing cytotoxicity. The CCK‐8 assay utilizes WST‐8 [2‐(2‐Methoxy‐4‐nitrophenyl)‐3‐(4‐nitrophenyl)‐5‐(2,4‐disulfophenyl)‐2H‐tetrazolium Sodium Salt] for rapid detection based on the principle that intracellular dehydrogenase‐mediated biological reduction of WST‐8 generates an orange formazan dye. This dye can dissolve in the medium, and its quantity is directly proportional to the number of viable cells. For the cytotoxicity test, 2 000 MC3T3‐E1 cells or CH3 cells were seeded into each well of 96‐well plates and cultured in DMEM medium containing 10% FBS and 1% penicillin‐streptomycin at 37 °C and 5% CO2overnight. Then the culture medium was removed, and the AMPs at the various concentrations in the media were added to each well. The cells were further incubated for 48 h, followed by the addition of […] of CCK‐8 and subsequent incubation for 1 h. The absorbance of the solution was measured at 450 nm by a microplate reader. The cell viability was calculated as follows (A represents absorbance): (11) %Cell viability=Asample−Ablank/Anegative−Ablank×100
The data were plotted as AMP concentration versus the percentage of living cells using GraphPad Prism 8.0.

E. coli XJ19025100 = assay type: cell-based; conditions: XJ19025100, 18 h
Protocol: as §1

human red blood cells = assay type: cell-based; conditions: 3 h
Protocol: Anticoagulant whole blood was diluted with PBS at a ratio of 1:1 and subsequently centrifuged at 1500×g for 10 minutes. The supernatant and white blood cell layer were discarded, while the red blood cells were washed three times with PBS until the supernatant became colorless and transparent. A 2% red blood cell suspension was then prepared using PBS. For the positive control, 0.2 mL of 1% Triton X‐100 was mixed with 0.8 mL of the red blood cell suspension. The negative control consisted of 0.2 mL of PBS combined with 0.8 mL of the red blood cell suspension. In the experimental group, 0.2 mL of MPOP‐03 (prepared at gradient concentrations) was added to 0.8 mL of the red blood cell suspension. Three replicates were prepared for each group. All samples were incubated at 37°C in a constant temperature water bath for 3 hours. Following incubation, the samples were centrifuged at 1500×g for 5 minutes, and the supernatants were carefully aspirated and transferred to new centrifuge tubes. The optical density values of the samples were measured at a wavelength of 524 nm using a microplate reader. The hemolysis ratio was calculated as follows (A represents absorbance): (12) %Hemolysis ratio=Asample−Anegative/Apositive−Anegative×100

[1] = test system: bone marrow mesenchymal stem cells CH3; assay type: cell-based
Description: as §2, with “viability=Asample−Ablank/Anegative−Ablank×100 […]” for “viability=Asample−Ablank/Anegative−Ablank×100”

Sequence | MIC B. subtilis (B. subtilis BNCC109047) | MIC E. coli (E. coli BL21(DE3)) | MIC S. aureus (S. aureus BNCC186335) | CC50 (MC3T3-E1) (MC3T3-E1 cells) | MIC against E. coli XJ19025100 (E. coli XJ19025100) | HC50 (concentration required to induce 50% hemolysis of red blood cells) (human red blood cells) | CC50 for MC3T3-E1 (MC3T3-E1 cells; 48 h) | CC50 for CH3 [1] | CC50 for CH3 ([1]; 48 h)
DPFGIMSKLQQFIRKFYQSLKHLKT [MPOP-01] | 8 µg/mL | 128 µg/mL | 4 µg/mL | 24 µg/mL | – | – | – | – | –
GGGGMLKYFKTAIHTIKKIGQKIVN [MPOP-04] | 4 µg/mL | 16 µg/mL | 4 µg/mL | 22 µg/mL | – | – | – | – | –
GIGKFLHSFTKFFSKIMNAIR [MPOP-07] | 4 µg/mL | – | 4 µg/mL | 35 µg/mL | – | – | – | – | –
GLFDVIKKIAEMVSNGYHTVKKKF [MPOP-08] | 4 µg/mL | 32 µg/mL | 4 µg/mL | 24 µg/mL | – | – | – | – | –
IGSFKHVFKRITSMAKAIR [MPOP-10] | 32 µg/mL | 256 µg/mL | 32 µg/mL | – | – | – | – | – | –
IKGIIKTIKKMASHFLHSAS [MPOP-09] | 8 µg/mL | 16 µg/mL | 8 µg/mL | 118 µg/mL | – | – | – | – | –
KLFRVVKKMFHSVFSSIHKYFR [MPOP-06] | 8 µg/mL | 32 µg/mL | 8 µg/mL | 20 µg/mL | – | – | – | – | –
LHQIKSVIKTAMNVLSGLFSAIKKK [MPOP-02] | 4 µg/mL | 32 µg/mL | 4 µg/mL | 15 µg/mL | – | – | – | – | –
MSKFKHFFNAVKSIFRGLTK [MPOP-03] | 2 µg/mL | – | – | 85 µg/mL | ≤ 8 µg/mL | 256 µg/mL | 84.96 µg/mL | 32.47 µg/mL | 34.27 µg/mL
VMKRIGTILSGLHSLLSKIF [MPOP-05] | 4 µg/mL | 32 µg/mL | 4 µg/mL | 28 µg/mL | – | – | – | – | –
